Data as given in patent US9527842B2, “Inhibitors of human immunodeficiency virus replication” (priority 2013, dated 2016).
Where two headings read alike, the source gives them in different places.

Tests used:
[1] = rcm bond, Hoveyda-Grubbs II, DCE
[2] = rcm bond, 20-membered ring, Hoveyda-Grubbs II, then H2, Pd/C, then NaOH, DCE, 3 steps

Work on `COC(=O)[C@@H](OC(C)(C)C)c1c(C)cn2nc3cc2c1N1CCC(C)(CC1)OCC=CC(C)COc1ccc(C)cc1-c1cccc-3c1` (stereo partly shown) yielded a ring closure, isolated yield ([1]; from C=CCOC1(C)CCN(c2c([C@H](OC(C)(C)C)C(=O)OC)c(C)cn3nc(-c4cccc(-c5cc(C)ccc5OCC(C)C=C)c4)cc23)CC1, 20-membered ring, 2.13 mM, 85.0 °C, 2.0 h) of 82%.

In the case of `COC(=O)[C@@H](OC(C)(C)C)c1c(C)cn2nc3cc2c1N1CCC(C)(CC1)OCC=CCOc1ccccc1CC(O)CNC3=O` (stereo partly shown), the ring closure, isolated yield ([1]; from C=CCOc1ccccc1CC(O)CNC(=O)c1cc2c(N3CCC(C)(OCC=C)CC3)c([C@H](OC(C)(C)C)C(=O)OC)c(C)cn2n1, 21-membered ring, 1.81 mM, 70.0 °C, 3.0 h) is reported as 58%.

With `COC(=O)[C@@H](OC(C)(C)C)c1c(C)cn2nc3cc2c1N1CCC(C)(CC1)OCC=CC[C@H](C)Oc1cc(F)ccc1-c1cccc-3c1` the ring closure, yield after HPLC ([2]; from C=CCOC1(C)CCN(c2c([C@H](OC(C)(C)C)C(=O)OC)c(C)cn3nc(-c4cccc(-c5ccc(F)cc5O[C@@H](C)CC=C)c4)cc23)CC1, 1.57 mM, 85.0 °C, 2.0 h) was 49.8%.

Compound `COC(=O)[C@@H](OC(C)(C)C)c1c(C)cn2nc3cc2c1N1CCC(C)(CC1)OCC=CC[C@H](C)Oc1ccc(C#N)cc1-c1cccc-3c1` has a ring closure, isolated yield ([1]; from C=CCOC1(C)CCN(c2c([C@H](OC(C)(C)C)C(=O)OC)c(C)cn3nc(-c4cccc(-c5cc(C#N)ccc5O[C@@H](C)CC=C)c4)cc23)CC1, 20-membered ring, 1.51 mM, 85.0 °C, 2.0 h) of 82%.

Compound `COC(=O)[C@@H](OC(C)(C)C)c1c(C)cn2nc3cc2c1N1CCC(C)(CC1)OCC=CC[C@H](C)Oc1ccc(C)c(F)c1-c1cccc-3c1` has a ring closure, yield after HPLC ([2]; from C=CCOC1(C)CCN(c2c([C@H](OC(C)(C)C)C(=O)OC)c(C)cn3nc(-c4cccc(-c5c(O[C@@H](C)CC=C)ccc(C)c5F)c4)cc23)CC1, 2.0 mM, 80.0 °C, 4.0 h) of 11%.

Compound `COC(=O)[C@@H](OC(C)(C)C)c1c(C)cn2nc3cc2c1N1CCC(C)(CC1)OCC=CC[C@H](C)Oc1ccc(F)cc1-c1cccc-3c1` has a ring closure, yield after HPLC ([2]; from C=CCOC1(C)CCN(c2c([C@H](OC(C)(C)C)C(=O)OC)c(C)cn3nc(-c4cccc(-c5cc(F)ccc5O[C@@H](C)CC=C)c4)cc23)CC1, 2.02 mM, 85.0 °C, 2.0 h) of 23.2%.

`COC(=O)[C@@H](OC(C)(C)C)c1c(C)cn2nc3cc2c1N1CCC(C)(CC1)OCC=CC[C@H](C)Oc1cccc(F)c1-c1cccc-3c1` showed a ring closure, yield after HPLC ([2]; from C=CCOC1(C)CCN(c2c([C@H](OC(C)(C)C)C(=O)OC)c(C)cn3nc(-c4cccc(-c5c(F)cccc5O[C@@H](C)CC=C)c4)cc23)CC1, 2.0 mM, 85.0 °C, 2.0 h) of 19.6%.
